Earlier results as cited in US20010004459A1, “Composition with sustained release of active principle, capable of forming a microemulsion” (priority 1998, published 2001).

Settings: acidic pH (dissolution curve at pH 1.2, FIG. 2)

solubility at acidic pH: insoluble
Structure (SMILES): COc1ccc2c(c1)c(CC(=O)O)c(C)n2C(=O)c1ccc(Cl)cc1 [indomethacin, Indomethacin]
